Measurements taken from publication PMC9259847, “Baicalin Induces a Potent Innate Immune Response to Inhibit Respiratory Syncytial Virus Replication via Regulating Viral Non-Structural 1 and Matrix RNA” (Frontiers in Immunology, 2022).

Molecular target: T1, NS1 protein (RSV non-structural protein NS1) (Human respiratory syncytial virus A2, UniProt P0DOE9)
T1 construct: gene 1C; NS1 coupled to CM5 chip
Assay: SPR (Biacore T200, NS1 coupled to CM5 chip)
Type: binding

T1 sequence (P0DOE9 whole entry): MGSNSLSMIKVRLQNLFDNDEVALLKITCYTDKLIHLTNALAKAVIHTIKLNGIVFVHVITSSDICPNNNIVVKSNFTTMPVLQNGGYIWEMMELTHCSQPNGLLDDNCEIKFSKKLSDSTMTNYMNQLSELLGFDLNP

O=C(O)[C@H]1O[C@@H](Oc2cc3oc(-c4ccccc4)cc(=O)c3c(O)c2O)[C@H](O)[C@@H](O)[C@@H]1O [baicalin]
Kd: 11.2 µM
